Reference: patent US20250206773A1, “FORMS AND COMPOSITIONS OF SODIUM CHENODEOXYCHOLATE” (Syntis Bio, Inc., priority 2022, published 2025)

Tests used:
Type in all cases: physicochemical
[1] = Dynamic vapor sorption (DVS) hygroscopicity; settings: 25° C.
Description: DVS measurements were performed with a SMS—DVS Intrinsic. The sample size was about 50 mg, accurately weighed. The measurement was performed at 25° C., the relative humidity (RH) range investigated was 40-90-0-90% RH with 10% RH steps. After each RH change, the mass of the sample was allowed to stabilize (waiting time 10 to 60 minutes, stabilization criterion ≤0.002 g for 10 minutes). The hygroscopicity of the sample was calculated as follows: [formula] • where: • W1: weight of sample at the start of the experiment (25° C. and 40% RH) • W2: weight of sample at 25° C. and 80% RH in the first sorption cycle High Pressure Liquid Chromatography (HPLC)

[2] = Exposure to moist air (RH 95%, room temperature), XRPD before/after; settings: 15-20 hours at 95% humidity
Description: FIG. 4 is a series of XRPD patterns, showing NaCDC Form A before (thick line) and after (thin line) 15 hours of exposure to RH 95% at room temperature. FIG. 8 is a series of XRPD patterns, showing NaCDC Form B before (thick line) and after (thin line) 15 hours of exposure to RH 95% at room temperature.

[3] = Intrinsic dissolution, USP rotating disk apparatus
Description: For the intrinsic dissolution studies, the following HPLC method was used: [table] Intrinsic dissolution profiles of NaCDC Form A and Form B were determined from a drug disk of constant surface area using a USP rotating disk apparatus in phosphate buffer (pH 7.4) at 37° C. […] A typical apparatus consisted of a punch and a die, whose base is attached to a surface plate. […] The punch was then inserted in the die cavity and the test material was compressed with a hydraulic press. A non-disintegrating compact of the material was formed in the die cavity with a single face of defined area exposed on the bottom of the die. The die assembly was then attached to a shaft with a holder and the surface plate was removed. The shaft holding the die assembly was positioned into the dissolution medium at a distance not less than 1.0 cm from the bottom of the vessel. In this procedure, fluid flow was generated by the rotation of the die. The amount of material dissolved was measured as a function of time. In particular, the cumulative amount dissolved at each time point was corrected for losses due to sampling. […] Method parameters are summarized below: [table]

[4] = Storage of screening solids at RT, XRPD after storage
Description: Form S2 was obtained from experiment VDS05 with EtOH after 12 days of diffusion at 50° C. […] The HPLC purity of the tested material was 92.1% at 212 nm. TG/DSC analysis of this material was consistent with that obtained from experiments SAS48, SDGR01, and SDGR07. XRPD analysis of this material is shown in FIG. 33, and the corresponding data summarized in Table S2: Form S8 was obtained in mixture with starting material ([…]) from experiment VDS12 with MEK after 12 days of diffusion at 50° C. […] The HPLC purity of the tested material was 93.7% at 212 nm. An XRPD spectrum of the material from experiment VDS12 is shown in FIG. 34A, as compared to NaCDC Form B, and the corresponding data are summarized in Table S8: The precipitate that formed in the water solution in the presence of acetone (as anti-solvent) was stored at RT for up to 3 weeks before it was subjected to thermal analysis. In this case, the majority of ASDS03 solid was dried at RT on filter paper up to 2 h and after that the recovered material was analyzed by XRPD. […] (Tonset) was observed. […] The precipitates that formed in the water solution in the presence of acetonitrile (as anti-solvent) from experiments ASDS04 and ASDS08 were stored at RT up to 24 days before being subjected to thermal analysis. In this case, the majority of solids from experiments ASDS04 and ASDS08 were dried at RT on filter paper for 1-2 h, and after that the recovered materials were analyzed by XRPD. […] The corresponding data for the initial material obtained from experiment […]) are summarized below: The precipitate that formed into the TFE solution in the presence of MTBE (as anti-solvent) was stored at RT for 22 days before being subjected to thermal analysis. In this case, the majority of the material from experiment ASDS19 was dried at RT on filter paper up to 2 h, and after that the recovered material was analyzed by XRPD. […] Considering that Form S12 was obtained as mixture with amorphous phase and with low crystallinity, there is a possibility that Form S12 is the same as Form S15. The XRPD data from experiment ASDS19 before storage for 22 days is summarized in Table S12, and the XRPD data from experiment ASDS19 after storage for 22 days is summarized in Table S15. The precipitate that formed into the TFE solution in the presence of DIPE (as anti-solvent) was stored at RT for 22 days before being subjected to thermal analysis. In this case, the majority of material obtained from experiment ASDS16 was dried at RT on filter paper up to 2 h, and after that, the recovered material was analyzed by XRPD. […] The precipitate that formed into the water solution in the presence of acetone (as anti-solvent) was stored at RT for 2 weeks before being subjected to thermal analysis. In this case, the majority of material obtained from experiment RAS11 was dried at RT on filter paper for 1-2 h, and after that the recovered material was analyzed by XRPD. […] The precipitate that formed into the TFE solution in the presence of iPrOAC (as anti-solvent) was stored at RT for 2 weeks before being subjected to thermal analysis. In this case, the majority of material from experiment RAS34 dried at RT on filter paper for 1-2 h, and after that the recovered material was analyzed by XRPD. […] The precipitate that formed into the TFE solution in the presence of EtOAc (as anti-solvent) was stored at RT for 2 weeks before being subjected to thermal analysis. In this case, the majority of material obtained from experiment RAS33 was dried at RT on filter paper for 1-2 h, and after that the recovered material was analyzed by XRPD. […] The precipitate that formed into the TFE solution in the presence of MTBE (as anti-solvent) was stored at RT for 2 weeks before being subjected to thermal analysis. In this case, the majority of the material obtained from experiment RAS36 that had been stored for 2 weeks was dried at RT on filter paper for 1-2 h, and after that the recovered material was analyzed by XRPD.

Compound: C[C@H](CCC(=O)[O-])[C@H]1CC[C@H]2[C@@H]3[C@H](O)C[C@@H]4C[C@H](O)CC[C@]4(C)[C@H]3CC[C@]12C.[Na+] [Form A, sodium chenodeoxycholate]
- hygroscopicity by DVS [1]: hygroscopic
- weight change in the first sorption cycle (DVS) ([1]; 40% RH to 80% RH): 14.1%
- effect of exposure to moist air (XRPD) [2]: partial amorphization and loss of crystallinity
- solid form after compression (XRPD) ([3]; 2 tons for 2 minutes): no change in solid form
- IDR (intrinsic dissolution rate) ([3]; USP phosphate buffer pH 7.4, 37° C., 100 rpm, disk 0.5024 cm^2): 0.6959 mg · min^−1 · cm^−2

Compound: C[C@H](CCC(=O)[O-])[C@H]1CC[C@H]2[C@@H]3[C@H](O)C[C@@H]4C[C@H](O)CC[C@]4(C)[C@H]3CC[C@]12C.[Na+] [Form S1, sodium chenodeoxycholate]
- XRPD form after storage ([4]; ASDS03 precipitate in water/acetone, stored at RT up to 3 weeks, dried on filter paper): transformed into Form S14
- XRPD form after storage ([4]; RAS11 precipitate in water/acetone, stored at RT for 2 weeks): high tendency of amorphization

Compound: C[C@H](CCC(=O)[O-])[C@H]1CC[C@H]2[C@@H]3[C@H](O)C[C@@H]4C[C@H](O)CC[C@]4(C)[C@H]3CC[C@]12C.[Na+] [Form S2, sodium chenodeoxycholate]
- form on storage ([4]; VDS05 material (EtOH vapor, 12 days, 50° C.), storage conditions at RT): remained stable

Compound: C[C@H](CCC(=O)[O-])[C@H]1CC[C@H]2[C@@H]3[C@H](O)C[C@@H]4C[C@H](O)CC[C@]4(C)[C@H]3CC[C@]12C.[Na+] [Form S3, sodium chenodeoxycholate]
- XRPD form after storage ([4]; RAS34 precipitate in TFE/iPrOAc, stored at RT for 2 weeks): remained unchanged

Compound: C[C@H](CCC(=O)[O-])[C@H]1CC[C@H]2[C@@H]3[C@H](O)C[C@@H]4C[C@H](O)CC[C@]4(C)[C@H]3CC[C@]12C.[Na+] [Form S6, sodium chenodeoxycholate]
- XRPD form after storage ([4]; RAS33 precipitate in TFE/EtOAc, stored at RT for 2 weeks): transformed into Form S1

Compound: C[C@H](CCC(=O)[O-])[C@H]1CC[C@H]2[C@@H]3[C@H](O)C[C@@H]4C[C@H](O)CC[C@]4(C)[C@H]3CC[C@]12C.[Na+] [Form S8, sodium chenodeoxycholate]
- form on storage ([4]; VDS12 material (MEK vapor, 50° C.), mixture with NaCDC Form B, storage at RT): remained stable

Compound: C[C@H](CCC(=O)[O-])[C@H]1CC[C@H]2[C@@H]3[C@H](O)C[C@@H]4C[C@H](O)CC[C@]4(C)[C@H]3CC[C@]12C.[Na+] [Form S9-a, sodium chenodeoxycholate]
- XRPD form after storage ([4]; ASDS04 precipitate in water/acetonitrile, stored at RT 22 days): remained unchanged

Compound: C[C@H](CCC(=O)[O-])[C@H]1CC[C@H]2[C@@H]3[C@H](O)C[C@@H]4C[C@H](O)CC[C@]4(C)[C@H]3CC[C@]12C.[Na+] [Form S9-b, sodium chenodeoxycholate]
- XRPD form after storage ([4]; ASDS08 precipitate in water/acetonitrile, stored at RT 23 days): transformed into a form similar to Form S9-a

Compound: C[C@H](CCC(=O)[O-])[C@H]1CC[C@H]2[C@@H]3[C@H](O)C[C@@H]4C[C@H](O)CC[C@]4(C)[C@H]3CC[C@]12C.[Na+] [Form S12, sodium chenodeoxycholate]
- XRPD form after storage ([4]; ASDS19 precipitate in TFE/MTBE, stored at RT for 22 days): transformed into Form S15

Compound: C[C@H](CCC(=O)[O-])[C@H]1CC[C@H]2[C@@H]3[C@H](O)C[C@@H]4C[C@H](O)CC[C@]4(C)[C@H]3CC[C@]12C.[Na+] [Form S13, sodium chenodeoxycholate]
- XRPD form after storage ([4]; ASDS16 precipitate in TFE/DIPE, stored at RT for 22 days): remained unchanged

Compound: C[C@H](CCC(=O)[O-])[C@H]1CC[C@H]2[C@@H]3[C@H](O)C[C@@H]4C[C@H](O)CC[C@]4(C)[C@H]3CC[C@]12C.[Na+] [Form S15, sodium chenodeoxycholate]
- XRPD form after storage ([4]; RAS36 precipitate in TFE/MTBE, stored at RT for 2 weeks): transformed into Form S14
